According to patent US20220323406A1, “METHODS AND COMPOSITIONS FOR DIFFERENTIATING STEM CELLS” (Massachusetts Institute of Technology, priority 2019, published 2022):

What was measured:
[1] = test system: ENR+CD organoids (ISC to Paneth cell differentiation); test: Primary screen: basal (non-stimulated) lysozyme secretion LYZ.NS, 2.5-D 384-well ENR+CD organoid differentiation; format: cell-based, mouse; settings: primary screen; for Z.LYZ.NS: standard z score
Excerpt: (§1) High-throughput screening.

[2] = test system: ENR+CD organoids (ISC to Paneth cell differentiation); test: Primary screen: CCh-stimulated lysozyme secretion LYZ.S, 2.5-D 384-well ENR+CD organoid differentiation; format: cell-based, mouse; settings: primary screen
Excerpt: as §1

ENR+CD organoids = test: Primary screen: ATP (CellTiter-Glo 3D, CTG) cell number/viability, 2.5-D 384-well ENR+CD organoids; settings: primary screen; for Z.CTG: standard z score;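 on all read-outs here: compounds given at plating and again on day 3 over a 6-day differentiation from ENR+CV stem-cell-enriched precursors, ATP measured on day 6, plate median as control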
[3] = 1st dose row of the treatment (0.08 uM by row order; dose not reprinted)
[4] = 2nd dose row of the treatment (0.40 uM by row order; dose not reprinted)
[5] = 3rd dose row of the treatment (2.00 uM by row order; dose not reprinted)
[6] = 4th dose row of the treatment (10.00 uM by row order; dose not reprinted)
[7] = dose 0.08 uM, FC relative to plate median
[8] = dose 0.40 uM, FC relative to plate median
[9] = dose 2.00 uM, FC relative to plate median
[10] = dose 10.00 uM, FC relative to plate median

| SMILES | Z.LYZ.NS (standard z score) ([1]; dose 0.08 uM) | Z.LYZ.NS (standard z score) ([1]; dose 0.40 uM) | Z.LYZ.NS (standard z score) ([1]; dose 2.00 uM) | Z.LYZ.NS (standard z score) ([1]; dose 10.00 uM) | Z.CTG (standard z score) (ENR+CD organoids; dose 0.08 uM) | Z.CTG (standard z score) (ENR+CD organoids; dose 0.40 uM) | Z.CTG (standard z score) (ENR+CD organoids; dose 2.00 uM) | Z.CTG (standard z score) (ENR+CD organoids; dose 10.00 uM) | Dose.FC.LYZ.NS ([1]; dose 0.08 uM) [log2 fold change] | Dose.FC.LYZ.NS ([1]; dose 0.40 uM) [log2 fold change] | Dose.FC.LYZ.NS ([1]; dose 2.00 uM) [log2 fold change] | Dose.FC.LYZ.NS ([1]; dose 10.00 uM) [log2 fold change] | Dose.FC.LYZ.S ([2]; dose 0.08 uM) [log2 fold change] | Dose.FC.LYZ.S ([2]; dose 0.40 uM) [log2 fold change] | Dose.FC.LYZ.S ([2]; dose 2.00 uM) [log2 fold change] | Dose.FC.LYZ.S ([2]; dose 10.00 uM) [log2 fold change] | Dose.FC.CTG (ENR+CD organoids; dose 0.08 uM) [log2 fold change] | Dose.FC.CTG (ENR+CD organoids; dose 0.40 uM) [log2 fold change] | Dose.FC.CTG (ENR+CD organoids; dose 2.00 uM) [log2 fold change] | Dose.FC.CTG (ENR+CD organoids; dose 10.00 uM) [log2 fold change] | also measured |
| --- | --- | --- | --- | --- | --- | --- | --- | --- | --- | --- | --- | --- | --- | --- | --- | --- | --- | --- | --- | --- | --- |
| O=C(c1cn(Cc2cncn2Cc2ccc(Br)cc2)cc1-c1cccc2ccccc12)N1CCOCC1 [LB42708] | −1.010 | −1.221 | −1.531 | −1.587 | −0.172 | −0.817 | −0.277 | −1.685 | – | – | – | – | – | – | – | – | – | – | – | – | Dose.FC.LYZ.NS (log2 fold change) ([1]; dose 0.08 uM): −0.116; Dose.FC.LYZ.NS (log2 fold change) ([1]; dose 0.40 uM): −0.140; Dose.FC.LYZ.NS (log2 fold change) ([1]; dose 2.00 uM): −0.176; Dose.FC.LYZ.NS (log2 fold change) ([1]; dose 10.00 uM): −0.182; Dose.FC.LYZ.S (log2 fold change) ([2]; dose 0.08 uM): −0.089; Dose.FC.LYZ.S (log2 fold change) ([2]; dose 0.40 uM): −0.144; Dose.FC.LYZ.S (log2 fold change) ([2]; dose 2.00 uM): −0.238; Dose.FC.LYZ.S (log2 fold change) ([2]; dose 10.00 uM): −0.233; Dose.FC.CTG (log2 fold change) (ENR+CD organoids; dose 0.08 uM): −0.072; Dose.FC.CTG (log2 fold change) (ENR+CD organoids; dose 0.40 uM): −0.342; Dose.FC.CTG (log2 fold change) (ENR+CD organoids; dose 2.00 uM): −0.116; Dose.FC.CTG (log2 fold change) (ENR+CD organoids; dose 10.00 uM): −0.706 |
| O=C1NC(=O)/C(=C/c2ccc(-c3ccc(F)cc3O)o2)S1 [AS-252424] | 0.609 | −0.368 | −0.695 | −0.671 | 0.333 | −0.176 | −0.858 | −0.487 | 0.070 | −0.042 | −0.080 | −0.077 | 0.072 | −0.008 | −0.074 | −0.022 | 0.139 | −0.074 | −0.359 | −0.204 | – |
| C=CCNC1=C2C[C@@H](C)C[C@H](OC)[C@H](O)[C@@H](C)/C=C(\C)[C@H](OC(N)=O)[C@@H](OC)/C=C\C=C(/C)C(=O)NC(=CC1=O)C2=O [17-AAG (Tanespimycin)] | −1.682 | −1.786 | −1.239 | −1.631 | −2.418 | −3.015 | −3.486 | −3.454 | −0.193 | −0.205 | −0.142 | −0.187 | −0.282 | −0.340 | −0.343 | −0.306 | −1.012 | −1.262 | −1.459 | −1.446 | SSMD.LYZ.NS_Rep (strictly standardized mean difference) [1, 3]: −1.180; SSMD.LYZ.NS_Rep (strictly standardized mean difference) [1, 4]: −1.186; SSMD.LYZ.NS_Rep (strictly standardized mean difference) [1, 5]: −1.053; SSMD.LYZ.NS_Rep (strictly standardized mean difference) [1, 6]: −1.183; SSMD.LYZ.S_Rep (strictly standardized mean difference) [2, 3]: −1.387; Z.LYZ.S (standard z score) [2, 3]: −1.826; SSMD.LYZ.S_Rep (strictly standardized mean difference) [2, 4]: −1.428; Z.LYZ.S (standard z score) [2, 4]: −2.199; SSMD.LYZ.S_Rep (strictly standardized mean difference) [2, 5]: −1.462; Z.LYZ.S (standard z score) [2, 5]: −2.219; SSMD.LYZ.S_Rep (strictly standardized mean difference) [2, 6]: −1.655; Z.LYZ.S (standard z score) [2, 6]: −1.975; SSMD.CTG.Rep (strictly standardized mean difference) (ENR+CD organoids; [3]): −0.926; SSMD.CTG.Rep (strictly standardized mean difference) (ENR+CD organoids; [4]): −1.023; SSMD.CTG.Rep (strictly standardized mean difference) (ENR+CD organoids; [5]): −1.783; SSMD.CTG.Rep (strictly standardized mean difference) (ENR+CD organoids; [6]): −1.348 |
| O=C1CC(=O)c2c(Cl)c(Cl)c(Cl)c(Cl)c21 [TCID] | – | – | – | – | – | – | – | – | – | – | – | – | – | – | – | – | – | – | – | – | Dose.FC.LYZ.NS [1, 7]: 0.049 log2 fold change; Z.LYZ.NS ([1]; dose 0.08 uM): 0.431; Dose.FC.LYZ.NS [1, 8]: −0.018 log2 fold change; Z.LYZ.NS ([1]; dose 0.40 uM): −0.155; Dose.FC.LYZ.NS [1, 9]: 0.066 log2 fold change; Z.LYZ.NS ([1]; dose 2.00 uM): 0.578; Dose.FC.LYZ.NS [1, 10]: −0.018 log2 fold change; Z.LYZ.NS ([1]; dose 10.00 uM): −0.159; Dose.FC.LYZ.S [2, 7]: 0.062 log2 fold change; Dose.FC.LYZ.S [2, 8]: 0.017 log2 fold change; Dose.FC.LYZ.S [2, 9]: −0.066 log2 fold change; Dose.FC.LYZ.S [2, 10]: −0.054 log2 fold change; Dose.FC.CTG (ENR+CD organoids; [7]): −0.136 log2 fold change; Z.CTG (ENR+CD organoids; dose 0.08 uM): −0.325; Dose.FC.CTG (ENR+CD organoids; [8]): −0.007 log2 fold change; Z.CTG (ENR+CD organoids; dose 0.40 uM): −0.017; Dose.FC.CTG (ENR+CD organoids; [9]): −0.217 log2 fold change; Z.CTG (ENR+CD organoids; dose 2.00 uM): −0.517; Dose.FC.CTG (ENR+CD organoids; [10]): −0.228 log2 fold change; Z.CTG (ENR+CD organoids; dose 10.00 uM): −0.545 |
